Structures can show the parent of a compound that is named as a salt.
Assays:
Bcl-2 protein = Bcl-2 protein (Homo sapiens (Human), UniProt P10415); assay: Inhibition of Bcl-2 by the fluorescence polarisation technique; format: binding; details: fluorescence polarisation test; concentration that inhibits fluorescence polarisation by 50%; read-out: IC50 (nM) Bcl-2 FP
Protocol: The fluorescence polarisation tests were carried out on microplates (384 wells). […] After incubation for 2 hours, the fluorescence polarisation is measured.

[1] = tested on: RS4;11 leukaemia tumour line; assay: In vitro cytotoxicity (Microculture Tetrazolium Assay, 48 hours); format: cell-based; details: Homo sapiens, RS4;11 cells, 48 hours exposure, MTT, concentration that inhibits cell viability by 50%, read-out: IC50 (nM) MTT RS4
Protocol: The cytotoxicity studies were carried out on the RS4;11 leukaemia tumour line.
The cells are distributed onto microplates and exposed to the test compounds for 48 hours.

Chain of Bcl-2 protein (P10415 whole entry): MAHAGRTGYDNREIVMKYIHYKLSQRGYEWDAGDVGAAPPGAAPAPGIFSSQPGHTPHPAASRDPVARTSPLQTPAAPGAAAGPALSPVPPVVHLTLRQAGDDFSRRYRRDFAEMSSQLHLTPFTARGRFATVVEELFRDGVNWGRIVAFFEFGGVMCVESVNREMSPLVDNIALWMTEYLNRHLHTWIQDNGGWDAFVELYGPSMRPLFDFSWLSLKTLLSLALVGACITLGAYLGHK

IC50 (Bcl-2 protein) | SMILES | IC50 [1]
18 nM | Cn1ccc2cc(N(C(=O)c3cc(-c4cc5c(cc4C(=O)N4Cc6ccccc6C[C@H]4CN4CCOCC4)OCO5)n4c3COCC4)c3ccc(O)cc3)ccc21 [Example 80, N-(4-Hydroxyphenyl)-N-(1-methyl-1H-indol-5-yl)-6-{6-[((3S)-3-(4-morpholinylmethyl)-3,4-dihydro-2(1H)-isoquinolinyl)carbonyl]-1,3-benzodioxol-5-yl}-3,4-dihydro-1H-pyrrolo[2,1-c][1,4]oxazine-8-carboxamide] | 18.8 nM
15 nM | O=C(c1cc(-c2cc(Cl)ccc2C(=O)N2Cc3ccccc3C[C@H]2CN2CCOCC2)n2c1CCCC2)N(c1ccc(O)cc1)c1ccc(F)c(F)c1 [Example 118, 3-(5-Chloro-2-{[(3S)-3-(morpholin-4-ylmethyl)-3,4-dihydroisoquinolin-2(1H)-yl]carbonyl}phenyl)-N-(3,4-difluorophenyl)-N-(4-hydroxyphenyl)-5,6,7,8-tetrahydroindolizine-1-carboxamide hydrochloride] | 71 nM
16 nM | Cn1ncc2cc(N(C(=O)c3cc(-c4cc5c(cc4C(=O)N4Cc6ccccc6C[C@H]4CN4CCOCC4)OCCO5)n4c3CCCC4)c3ccc(O)cc3)ccc21 [Example 39, N-(4-Hydroxyphenyl)-N-(1-methyl-1H-indazol-5-yl)-3-{7-[((3S)-3-(4-morpholinylmethyl)-3,4-dihydro-2(1H)-isoquinolinyl)carbonyl]-2,3-dihydro-1,4-benzodioxin-6-yl}-5,6,7,8-tetrahydro-1-indolizine carboxamide hydrochloride] | 14.1 nM
17 nM | Cn1ccc2cc(N(C(=O)c3cc(-c4cc(F)ccc4C(=O)N4Cc5ccccc5C[C@H]4CN4CCOCC4)n4c3CCCC4)c3ccc(O)cc3)ccc21 [Example 24, 3-{5-Fluoro-2-[((3S)-3-(4-morpholinylmethyl)-3,4-dihydro-2(1H)-isoquinolinyl)carbonyl]phenyl}-N-(4-hydroxyphenyl)-N-(1-methyl-1H-indol-5-yl)-5,6,7,8-tetrahydro-1-indolizine carboxamide hydrochloride] | 29.8 nM
32 nM | Cl.[2H]C1([2H])Oc2cc(C(=O)N3Cc4ccccc4C[C@H]3CN3CCOCC3)c(-c3cc(C(=O)N(c4ccc(O)cc4)c4ccc(C)c(F)c4)c4n3CCCC4)cc2O1 [Example 51, N-(3-Fluoro-4-methylphenyl)-N-(4-hydroxyphenyl)-3-{2,2-dideuterio-6-[((3S)-3-(4-morpholinylmethyl)-3,4-dihydro-2(1H)-isoquinolinyl)carbonyl]-1,3-benzodioxol-5-yl}-5,6,7,8-tetrahydro-1-indolizine carboxamide hydrochloride] | 26 nM
6 nM | Cc1ccc(C(=O)N2Cc3ccccc3C[C@H]2CN2CCOCC2)c(-c2cc(C(=O)N(c3ccc(O)cc3)c3ccc4c(ccn4C)c3)c3n2CCCC3)c1 [Example 95, N-(4-Hydroxyphenyl)-N-(1-methyl-1H-indol-5-yl)-3-(5-methyl-2-{[(3S)-3-(morpholin-4-ylmethyl)-3,4-dihydroisoquinolin-2(1H)-yl]carbonyl}phenyl)-5,6,7,8-tetrahydroindolizine-1-carboxamide hydrochloride] | 13.5 nM
6 nM | Cn1ccc2cc(N(C(=O)c3cc(-c4cc(Cl)ccc4C(=O)N4Cc5ccccc5C[C@H]4CN4CCOCC4)n4c3CCCC4)c3ccc(O)cc3)cnc21 [Example 103, 3-(5-Chloro-2-{[(3S)-3-(morpholin-4-ylmethyl)-3,4-dihydroisoquinolin-2(1H)-yl]carbonyl}phenyl)-N-(4-hydroxyphenyl)-N-(1-methyl-1H-pyrrolo[2,3-b]-pyridin-5-yl)-5,6,7,8-tetrahydroindolizine-1-carboxamide] | 16.8 nM
31 nM | O=C(c1cc(-c2cc(Cl)ccc2C(=O)N2Cc3ccccc3C[C@H]2CN2CCOCC2)n2c1COCC2)N(c1ccc(O)cc1)c1ccc2c(c1)CCN2 [Example 79, 6-{5-Chloro-2-[((3S)-3-(4-morpholinylmethyl)-3,4-dihydro-2(1H)-isoquinolinyl)carbonyl]phenyl}-N-(2,3-dihydro-1H-indol-5-yl)-N-(4-hydroxyphenyl)-3,4-dihydro-1H-pyrrolo[2,1-c][1,4]oxazine-8-carboxamide bis(hydrochloride)] | 67.5 nM
21 nM | COc1ccc(C(=O)N2Cc3ccccc3C[C@H]2CN2CCOCC2)c(-c2cc(C(=O)N(c3ccc(O)cc3)c3ccc4c(ccn4C)c3)c3ccccn23)c1 [Example 71, N-(4-Hydroxyphenyl)-3-{5-methoxy-2-[((3S)-3-(4-morpholinylmethyl)-3,4-dihydro-2(1H)-isoquinolinyl)carbonyl]phenyl}-N-(1-methyl-1H-indol-5-yl)-1-indolizine carboxamide hydrochloride] | 24.4 nM
22 nM | CN1CCc2cc(N(C(=O)c3cc(-c4cc5c(cc4C(=O)N4Cc6ccccc6C[C@H]4CN4CCOCC4)OCO5)n4ccccc34)c3ccc(O)cc3)ccc21 [Example 61, N-(4-Hydroxyphenyl)-N-(1-methyl-2,3-dihydro-1H-indol-5-yl)-3-{6-[((3S)-3-(4-morpholinylmethyl)-3,4-dihydro-2(1H)-isoquinolinyl)carbonyl]-1,3-benzodioxol-5-yl}-1-indolizine carboxamide hydrochloride] | 14.5 nM
32 nM | Cn1ccc2cc(N(C(=O)c3cc(-c4cc(Br)ccc4C(=O)N4Cc5ccccc5C[C@H]4CN4CCOCC4)n4c3CCCC4)c3ccc(O)cc3)ccc21 [Example 18, 3-{5-Bromo-2-[((3S)-3-(4-morpholinylmethyl)-3,4-dihydro-2(1H)-isoquinolinyl)carbonyl]phenyl}-N-(4-hydroxyphenyl)-N-(1-methyl-1H-indol-5-yl)-5,6,7,8-tetrahydro-1-indolizine carboxamide hydrochloride] | 24.9 nM
30 nM | O=C(c1cc(-c2cc3c(cc2C(=O)N2Cc4ccccc4C[C@H]2C[N+]2([O-])CCOCC2)OCO3)n2c1CCCC2)N(c1ccccc1)c1ccc(O)cc1 [Example 109, N-(4-Hydroxyphenyl)-3-(6-{[(3S)-3-[(4-oxidomorpholin-4-yl)methyl]-3,4-dihydroisoquinolin-2(1H)-yl]carbonyl}-1,3-benzodioxol-5-yl)-N-phenyl-5,6,7,8-tetrahydroindolizine-1-carboxamide] | 483 nM
5 nM | Cc1ccc(N(C(=O)c2cc(-c3cc4c(cc3C(=O)N3Cc5ccccc5C[C@H]3CN3CCOCC3)OCO4)n3c2COCC3)c2ccc(O)cc2)cc1F [Example 92, N-(3-Fluoro-4-methylphenyl)-N-(4-hydroxyphenyl)-6-(6-{[(3S)-3-(morpholin-4-ylmethyl)-3,4-dihydroisoquinolin-2(1H)-yl]carbonyl}-1,3-benzodioxol-5-yl)-3,4-dihydro-1H-pyrrolo[2,1-c][1,4]oxazine-8-carboxamide hydrochloride] | 40.2 nM
13 nM | Cn1ncc2cc(N(C(=O)c3cc(-c4cc(Cl)ccc4C(=O)N4Cc5ccccc5C[C@H]4CN4CCOCC4)n4c3CCCC4)c3ccc(O)cc3)ccc21 [Example 42, 3-{5-Chloro-2-[((3S)-3-(4-morpholinylmethyl)-3,4-dihydro-2(1H)-isoquinolinyl)carbonyl]phenyl}-N-(4-hydroxyphenyl)-N-(1-methyl-1H-indazol-5-yl)-5,6,7,8-tetrahydro-1-indolizine carboxamide hydrochloride] | 53.6 nM

— patent US9120791B2, “Indolizine compounds, a process for their preparation and pharmaceutical compositions containing them” (LES LABORATOIRES SERVIER, priority 2012, dated 2015)
